Results: PubChem BioAssay AID1963420 (Molecular Pharmacology Branch, DTP, NCI, 2024)
“And” between values parts separate entries of the source, which are not always exact repeats. Equal values may be shown once.

System: 494315-158-R-J1-PDC complex spheroid growth, percent test/control
Assay: Anticancer human tumor 494315-158-R-J1-PDC patient-derived soft tissue sarcoma cell line growth inhibition [Asc]
Conditions: for viability, T/C: stronger effect = lower value
Protocol: Multicellular complex tumor spheroid response to apoptosis pathway targeting inhibitors Alrizomadlin, Pelcitoclax, and Dasminapant in combination with a variety of drugs and investigational agents in selected tumor cell lines
The MDM2 inhibitor alrizomadlin, the Bcl-2/Bcl-xL inhibitor pelcitoclax, and the IAPs inhibitor dasminapant were evaluated both individually and in combination with standard of care and investigational anticancer small molecules within a complex spheroid model of solid tumors. . Complex spheroids include a stromal component modeled by human endothelial cells (HUVEC) and fibroblasts modeled by human mesenchymal stem cells (MSCs). The concentration ranges selected for each drug and investigational agent were based upon clinically achievable concentrations if the clinical Cmax of the agent was known.
Compounds. The drugs and investigational agents: alrizomadlin (APG-115; NSC831270), pelcitoclax (APG-1252; NSC835773), dasminapant (APG-1387;NSC834197), TAK-243 (NSC785004), copanlisib (NSC809693), olaparib (NSC753686), talazoparib (NSC767125), cobimetinib (NSC 768068), eltanexor (KPT-8602, NSC 794443), abemaciclib (NSC 768073), sotorasib (NSC818433), adagrasib (NSC 831453), MRTX-1133 (NSC 836407), Iadademestat (ORY1001, NSC 806812), and RMC-4630 (NSC839698), were obtained from the NCI Developmental Therapeutics Program Chemical Repository. The FDA-approved anticancer drug set is available from the Developmental Therapeutics Program at https://dtp.cancer.gov/organization/dscb/obtaining/available plates.htm. […] The stock solutions were prepared in dimethyl sulfoxide (DMSO, Sigma-Aldrich, St. Louis, MO, cat. D2650) at 800-fold the tested concentration and stored at -70 degrees C prior to their use. All drugs and investigational agents were tested over a range starting from a high concentration at or near the clinical Cmax and decreasing in half-log increments. If the clinical Cmax for an agent had not been determined, the highest concentration tested was 10 microM.
The patient-derived cancer (PDC) cell lines include five colon adenocarcinomas: 186277-243-T-J2-PDC, 616215-338-R-J1-PDC, 439559-082-T-J2-PDC, 463943-066-T-J2-PDC, and 519858-162-T-J1-PDC; three pancreatic carcinomas: 323965-272-R-J2-PDC, 521955-158-R6-J3-PDC, and 521955-158-R2-J5-PDC; two uterine sarcomas: 327498-152-R-J2-PDC and 993429-296-R-J1-PDC; two rhabdomyosarcomas: 755483-174-R-J1-PDC and 772245-204-R-J1-PDC; two soft tissue sarcomas: 126254-015-R-J1-PDC and 494315-158-R-J1-PDC; two malignant fibrous histiocytomas: 317291-083-R-J1-PDC and 596521-263-R-J1-PDC; two breast carcinomas: 171881-019-R-J1-PDC and 885512-296-R-J2-PDC; and one ovarian carcinoma: 6556581-035-R-J-PDC were obtained from the NCI PDMR, (https://pdmr.cancer.gov). The established cell lines HSSY-2 synovial sarcoma (RRID:CVCL 8719), SYO-1 synovial sarcoma (RRID:CVCL_7146), MPNST malignant peripheral neural sheath tumor were obtained from the Sloan Kettering Institute. The following established cell lines were purchased from the American Type Culture Collection (ATCC, Manassas, VA), Sor the received from the NCI repository:, PANC-1 pancreatic carcinoma (CRL-1469, RRID:CVCL_0480), OVCAR-5 ovarian carcinoma (RRID:CVCL_1628), OVCAR-8 ovarian carcinoma (RRID:CVCL_1629), , MCF-7 breast carcinoma (CRL-12584, RRID:CVCL_0031), MDA-MB-231 breast carcinoma (CRL-12532, RRID:CVCL_0062), NCI-H1876 small cell lung carcinoma (CRL-5902, RRID:CVCL_1503), NCI-H510A small cell lung carcinoma (HTB-184, RRID:CVCL_1565), NCI-H1417 (CRL-5869, RRID:CVCL_1469), and NCI-H196 small cell lung carcinoma (CRL-5823, RRID:CVCL_1509). Dr. Peter Houghton (Greehey Children's Cancer Research Institute, University of Texas Health Science Center, San Antonio, TX) provided Rh-18 rhabdomyosarcoma (RRID:CVCL_1659). Pooled donor human umbilical vein endothelial cells (HUVEC, Lonza, cat. CC-2519) and human mesenchymal stem cells (hMSC, Lonza, cat. PT-2501) were purchased from Lonza (Walkersville, MD).
Cell Culture. […]

[1] = compound alone, run of 09/27/2022
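Note: compound exposure lasted seven days after spheroids formed for three days.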

## C#Cc1c(F)ccc2cc(O)cc(-c3ncc4c(N5CC6CCC(C5)N6)nc(OCC56CCCN5CC(F)C6)nc4c3F)c12 (stereo not drawn)
Compound 0.0316 µM
  viability, T/C: 107% and 98.9% and 87.7%
Compound 0.1 µM
  viability, T/C: 109% and 102% and 108%
Compound 0.316 µM
  viability, T/C: 107% and 98.4% and 99.9%
Compound 1 µM
  viability, T/C: 107% and 104% and 95.3%
Compound 3.16 µM
  viability, T/C: 120% and 97.1% and 100%
Compound 10 µM
  viability, T/C: 103% and 86.4% and 91.4%
Curve of compound
  IC50: > 10 µM

## C=C(F)C(=O)N1CCN(c2nc(OCC3CCCN3C)nc3c2CCN(c2cccc4cccc(Cl)c24)C3)CC1CC#N (stereo not drawn)
Compound 0.0316 µM
  viability, T/C: 89.2% and 99.6% and 84.3%
Compound 0.1 µM
  viability, T/C: 92.5% and 97.5% and 96.5%
Compound 0.316 µM
  viability, T/C: 88.7% and 82.5% and 97.6%
Compound 1 µM
  viability, T/C: 84.9% and 84.5% and 86.7%
Compound 3.16 µM
  viability, T/C: 62% and 51.7% and 68.6%
Compound 10 µM
  viability, T/C: 0.23% and 0.25% and 0.24%
Curve of compound
  IC50: 3.95 µM and 3.36 µM and 4.31 µM

## C=CC(=O)N1CCN(c2nc(=O)n(-c3c(C)ccnc3C(C)C)c3nc(-c4c(O)cccc4F)c(F)cc23)C(C)C1 (stereo not drawn)
Compound 0.0316 µM
  viability, T/C: 105% and 116% and 107%
Compound 0.1 µM
  viability, T/C: 109% and 108% and 91.3%
Compound 0.316 µM
  viability, T/C: 103% and 101% and 104%
Compound 1 µM
  viability, T/C: 113% and 112% and 105%
Compound 3.16 µM
  viability, T/C: 112% and 113% and 101%
Compound 10 µM
  viability, T/C: 98.8% and 110% and 109%
Curve of compound
  IC50: > 10 µM

## CCN1C(C(=O)NC23CCC(C(=O)O)(CC2)CC3)C(c2cccc(Cl)c2F)C2(C(=O)Nc3cc(Cl)ccc32)C12CCCCC2 (stereo not drawn)
Compound 0.00949 µM
  viability, T/C: 86.2% and 96.4%
[1]
  IC50: > 3 µM
Curve of compound
  IC50: > 3 µM

## CCN1CCN(Cc2ccc(Nc3ncc(F)c(-c4cc(F)c5nc(C)n(C(C)C)c5c4)n3)nc2)CC1
Compound 0.00316 µM
  viability, T/C: 86.4% and 118% and 98.1%
Compound 0.01 µM
  viability, T/C: 95.3% and 99.7% and 103%
Compound 0.0316 µM
  viability, T/C: 97.3% and 110% and 101%
Compound 0.1 µM
  viability, T/C: 94.9% and 96.2% and 93.2%
Compound 0.316 µM
  viability, T/C: 86.4% and 92.8% and 116%
Compound 1 µM
  viability, T/C: 87% and 91.4% and 104%
Curve of compound
  IC50: > 1 µM

## CNC(C)C(=O)NC1CN(S(=O)(=O)c2cccc(S(=O)(=O)N3CCC4CCC(C(=O)NC(c5ccccc5)c5ccccc5)N4C(=O)C(NC(=O)C(C)NC)C3)c2)CCC2CCC(C(=O)NC(c3ccccc3)c3ccccc3)N2C1=O (stereo not drawn)
Compound 0.00316 µM
  viability, T/C: 79% and 74.7%
Compound 0.01 µM
  viability, T/C: 69.1% [middle of 15 runs]
Compound 0.0316 µM
  viability, T/C: 58.5% [middle of 15 runs]
Compound 0.1 µM
  viability, T/C: 51.9% [middle of 15 runs]
Compound 0.316 µM
  viability, T/C: 45% [middle of 15 runs]
Compound 1 µM
  viability, T/C: 39.2% [middle of 15 runs]
Curve of compound
  IC50: 0.0461 µM and 0.0289 µM

## COc1c(OCCCN2CCOCC2)ccc2c3n(c(=NC(=O)c4cnc(N)nc4)nc12)CCN3
Compound 0.00316 µM
  viability, T/C: 87.8% and 87% and 82.3%
Compound 0.01 µM
  viability, T/C: 79.6% and 80.4% and 82.8%
Compound 0.0316 µM
  viability, T/C: 56.8% and 58.9% and 54.3%
Compound 0.1 µM
  viability, T/C: 37% and 32% and 34%
Compound 0.316 µM
  viability, T/C: 20.7% and 21.1% and 18%
Compound 1 µM
  viability, T/C: 16.9% and 20.5% and 16.8%
Curve of compound
  IC50: 0.048 µM and 0.046 µM and 0.0441 µM

## Cc1c(S(C)(=O)=O)c(-c2cc(F)cc(N3CCN(c4ccc(NS(=O)(=O)c5ccc(NC(CCN6CCC(C(=O)OCCCP(=O)(O)O)CC6)CSc6ccccc6)c(S(=O)(=O)C(F)(F)F)c5)cc4)CC3)c2)c(-c2ccc(Cl)cc2)n1C(C)C (stereo not drawn)
Compound 0.1 µM
  viability, T/C: 77.8% [middle of 14 runs]
Compound 0.316 µM
  viability, T/C: 71.6% [middle of 14 runs]
Compound 1 µM
  viability, T/C: 65% [middle of 14 runs]
Compound 3.16 µM
  viability, T/C: 52.8% [middle of 14 runs]
Compound 10 µM
  viability, T/C: 73.2% [middle of 14 runs]
[1]
  IC50: > 10 µM

## Cc1nc(N2CCC3(CC2)COC(C)C3N)c(CO)nc1Sc1ccnc(N)c1Cl (stereo not drawn)
Compound 0.00949 µM
  viability, T/C: 105% and 96.7% and 89%
Compound 0.03 µM
  viability, T/C: 92.1% and 86.9% and 81.2%
Compound 0.0949 µM
  viability, T/C: 85.7% and 86% and 78.7%
Compound 0.3 µM
  viability, T/C: 92% and 75.2% and 66.9%
Compound 0.949 µM
  viability, T/C: 71.2% and 54.1% and 58.9%
Compound 3 µM
  viability, T/C: 54.9% and 42.4% and 43.2%
Curve of compound
  IC50: > 3 µM and 1.52 µM and 1.8 µM

## Cn1ncnc1[C@H]1c2n[nH]c(=O)c3cc(F)cc(c23)N[C@@H]1c1ccc(F)cc1
Compound 0.000316 µM
  viability, T/C: 84.6% and 103% and 102%
Compound 0.001 µM
  viability, T/C: 85.7% and 93.6% and 83.1%
Compound 0.00316 µM
  viability, T/C: 83.3% and 95.1% and 85%
Compound 0.01 µM
  viability, T/C: 73.3% and 73.7% and 87.7%
Compound 0.0316 µM
  viability, T/C: 66.1% and 69.2% and 73.8%
Compound 0.1 µM
  viability, T/C: 67.4% and 65.3% and 60.4%
Curve of compound
  IC50: > 0.1 µM

## NC(=O)C(=Cn1cnc(-c2cc(C(F)(F)F)cc(C(F)(F)F)c2)n1)c1cncnc1
Compound 0.000949 µM
  viability, T/C: 88.9% and 102% and 89.1%
Compound 0.003 µM
  viability, T/C: 93.4% and 99.6% and 101%
Compound 0.00949 µM
  viability, T/C: 79.4% and 90.6% and 81.3%
Compound 0.03 µM
  viability, T/C: 73.1% and 71.5% and 74%
Compound 0.0949 µM
  viability, T/C: 49.7% and 40.1% and 50.4%
Compound 0.3 µM
  viability, T/C: 13.5% and 13.7% and 12.4%
Curve of compound
  IC50: 0.0942 µM and 0.0659 µM and 0.0944 µM

## NC1CCC(NC2CC2c2ccccc2)CC1 (stereo not drawn)
Compound 0.000316 µM
  viability, T/C: 89% and 106% and 94%
Compound 0.001 µM
  viability, T/C: 76.7% and 90.3% and 92.3%
Compound 0.00316 µM
  viability, T/C: 75.3% and 86% and 84.9%
Compound 0.01 µM
  viability, T/C: 89% and 91.7% and 90.7%
Compound 0.0316 µM
  viability, T/C: 93.3% and 81.8% and 96.3%
Compound 0.1 µM
  viability, T/C: 88.3% and 94.6% and 95.1%
Curve of compound
  IC50: > 0.1 µM

## O=C(c1cc(Cc2n[nH]c(=O)c3ccccc23)ccc1F)N1CCN(C(=O)C2CC2)CC1
Compound 0.0316 µM
  viability, T/C: 83.7% and 85.7% and 88.2%
Compound 0.1 µM
  viability, T/C: 101% and 95% and 86.5%
Compound 0.316 µM
  viability, T/C: 76.7% and 88.8% and 89.9%
Compound 1 µM
  viability, T/C: 83.8% and 84.5% and 81.4%
Compound 3.16 µM
  viability, T/C: 69.5% and 85.8% and 85.3%
Compound 10 µM
  viability, T/C: 52.3% and 55.7% and 50%
Curve of compound
  IC50: > 10 µM

## O=C(c1ccc(F)c(F)c1Nc1ccc(I)cc1F)N1CC(O)([C@@H]2CCCCN2)C1
Compound 0.00316 µM
  viability, T/C: 92.8% and 93% and 99.5%
Compound 0.01 µM
  viability, T/C: 111% and 90% and 99.1%
Compound 0.0316 µM
  viability, T/C: 108% and 106% and 90.2%
Compound 0.1 µM
  viability, T/C: 124% and 100% and 114%
Compound 0.316 µM
  viability, T/C: 98.4% and 90% and 111%
Compound 1 µM
  viability, T/C: 57.7% and 54.8% and 65.7%
Curve of compound
  IC50: > 1 µM
